The text below walks through data of patent publication US20240294488A1, “ISOTOPOLOGES, SALTS, CRYSTALLINE FORMS, STEREOISOMERS, OF METHYLONE AND ETHYLONE AND METHODS OF USE THEREOF” (Terran Biosciences Inc., priority 2021, published 2024).

Data set [1] relates to participants diagnosed with at least moderate post-traumatic stress disorder (PTSD). Nature of the data set: Double-blind, randomized, placebo-controlled clinical trial of methylone-assisted psychotherapy in PTSD. It counts as in vivo, human. As to conditions: for CAPS-5 assessments: Intervening Session 1C, 2C, 3C and Study Conclusion; for daytime sleepiness as measured by ESS / change in CAPS-5 assessment / clinician-rated functional impairment score as measured by SDS / depression as measured by HAM-D: at Study Conclusion; for change in CAPS-5 assessment: vs placebo group, with psychotherapy. The method, then: A multicenter, randomized, double-blind, placebo-controlled trial is conducted to assess the efficacy and safety of methylone-assisted psychotherapy versus psychotherapy with placebo control in participants diagnosed with at least moderate post-traumatic stress disorder (PTSD).
This multicenter, randomized, double-blind, placebo-controlled trial is conducted at various sites in the United States with IRB approval from each study site. A flexible dose of methylone hydrochloride salt or placebo, followed by a supplemental half-dose unless contraindicated by patient's previous response or medical history, is also administered during the Treatment Period with psychotherapy in at least 3 blinded monthly Experimental Sessions. The Supplemental Dose extends the duration of drug effects on the participants during an Experimental Session. Methylone test groups are further subdivided into specific groups receiving only racemic methylone hydrochloride salt, S-methylone hydrochloride salt, or R-methylone hydrochloride salt. An optional Risk Evaluation and Mitigation Strategy (REMS) Protocol may be implemented for the racemic methylone, S-methylone, and placebo-groups. The Treatment Period lasts for approximately 12 weeks. During the Treatment Period, each Experimental Session is followed by three Intervening Sessions of non-drug psychotherapy. Each Experimental Session involves an overnight stay. The Primary Outcome measure, the change in Clinician Administered PTSD Scale for DSM-5 (CAPS-5), is determined by a blinded Independent Rater (IR) pool multiple times throughout the study. The study consists of separate periods for each participant. Initially, prospective participants undergo a Screening Period involving an initial eligibility assessment, a medical history intake, informed consent, and enrollment of eligible participants. Next, a Preparation Period is undertaken for enrolled participants involving medication tapering and clinical baseline assessments to confirm each participant meets enrollment criteria. As part of the Preparation Period, a detailed assessment of co-morbidities to PTSD is recorded. Participants may remain on prescribed courses of selective serotonin reuptake inhibitor (SSRI) or serotonin and norepinephrine reuptake inhibitor (SNRI) treatment. Dosages and/or frequency of administration of a prescribed SSRI or SNRI may be adjusted to fit within study parameters. Participants may be required to taper a prescribed course of medication in order to maintain eligibility within the study. The Treatment Period consists of three monthly Experimental Sessions and associated Intervening Sessions of integrative behavioral psychotherapy. The Treatment Period lasts approximately 12 weeks. Following the Treatment Period is a Follow-up Period and Study Conclusion. During the Follow-up Period and Study Conclusion, participants complete 4 weeks with no study visits, followed by a Study Conclusion visit.
This study compares the effects of three blinded Experimental Sessions of psychotherapy in combination with flexible doses of methylone or placebo administered as described below. Non-drug preparatory and intervening psychotherapy sessions are also included. Patient's weight is determined for dosage calculation. Initial dose is 100 mg unless this will result in a dosage of less than 1.5 mg/kg of patient weight. Initial dose thereby adjusted upward in 25 mg increments to deliver the lowest dose possible of at least 1.5 mg/kg of patient weight. Initial dose for Experimental Session 2 and 3 is cumulative dose calculated by adding the initial dose plus REMS protocol dose used the previous Experimental Session for each patient.
Randomization occurs prior to the initiation of Experimental Session 1. Each participant is provided the next randomized number in a sequence by a blinded study monitor. […]

A short description of data set [2]: Solubility screen of methylone hydrochloride in solvents. It counts as physicochemical. To be noted: thermodynamic from solid, visual. The procedure: The experiments were carried out by adding the test solvent in aliquots to weighed portions of solid. Whether dissolution had occurred was judged by visual inspection after addition of each solvent aliquot. Solubility numbers recorded in Table 4 were calculated by dividing the weight of the sample by the total amount of solvent used to dissolve the sample. The actual solubilities may be greater than the numbers calculated because of the use of solvent aliquots that were too large or because of slow dissolution rates. All solubility measurements were carried out at room temperature unless noted otherwise.

A short description of data set [3]: Metabolic stability in human liver microsomes. As to conditions: pooled liver microsomes, pH 7.4; human liver microsomes 0.5 mg/mL, 1 μM compound, NADPH, 0-45 min. It counts as in vitro ADME. The procedure: Pooled liver microsomes are purchased from a reputable commercial supplier. Microsomes are stored at […] prior to use. Microsomes (final protein concentration 0.5 mg/mL), 0.1 M phosphate buffer pH 7.4 and test compound (final substrate concentration 1 μM; final DMSO concentration 0.25%) are preincubated at 37° C. prior to the addition of NADPH (final concentration 1 mM) to initiate the reaction. A minus cofactor control incubation is included for each compound tested where 0.1 M phosphate buffer pH 7.4 is added instead of NADPH (minus NADPH). Two control compounds are included with each species. All incubations are performed singularly for each test compound. Each compound is incubated for 0, 5, 15, 30 and 45 min. The control (minus NADPH) is incubated for 45 min only. The reactions are stopped by transferring incubate into acetonitrile at the appropriate time points, in a 1:3 ratio. The termination plates are centrifuged at 3,000 rpm for 20 min at 4° C. to precipitate the protein.
From a plot of ln peak area ratio (compound peak area/internal standard peak area) against time, the gradient of the line is determined. Subsequently, half-life and intrinsic clearance are calculated using the equations below:
where V=Incubation volume (μL)/Microsomal protein (mg)
Relevant control compounds were assessed, ensuring intrinsic clearance values fall within the specified limits (if available).

Where a name gives a salt, the structure may show the parent alone.

Regarding `CNC(C)C(=O)c1ccc2c(c1)OCO2` (racemic) [(rac)-Methylone Hydrochloride, 3,4-methylenedioxy-N-methylcathinone hydrochloride], in data set [1] (vs placebo-treated controls), the CAPS-5 assessments result is reported as “Significant improvements in CAPS-5 assessments”. Also, the “daytime sleepiness as measured by ESS” value in data set [1] is given as “a significant improvement in lessening daytime sleepiness”. For the same compound, the “change in CAPS-5 assessment” value in data set [1] was “a significant mean reduction in CAPS-5 assessment”. The “clinician-rated functional impairment score as measured by SDS” value in data set [1] (vs placebo-treated controls) was “a significant improvement in clinician-rated functional impairment score”. In data set [1] (vs placebo-treated controls), the “depression as measured by HAM-D” value is “a significant improvement depression”. Also, the solubility (commonly the concentration that dissolves in the medium under given conditions) in data set [2] (acetonitrile, organic solvent or mixture, ACN, room temperature) is less than 1000 µg/mL; in data set [2] (chloroform, organic solvent or mixture, CHCl3, room temperature) it was less than 1000 µg/mL; in data set [2] (ethanol, organic solvent or mixture, EtOH, room temperature), 8000 µg/mL; in data set [2] (ethyl acetate (wet), organic solvent or mixture, EtOAc (wet), room temperature), 9000 µg/mL; in data set [2] (methanol, organic solvent or mixture, MeOH, room temperature), 48000 µg/mL; in data set [2] (methanol/chloroform 50/50, organic solvent or mixture, MeOH/CHCl3 50/50, room temperature), 45000 µg/mL. The solubility in data set [2] (organic solvent or mixture, Acetone, room temperature) is less than 1000 µg/mL; in data set [2] (organic solvent or mixture, DMF, room temperature), 5000 µg/mL; in data set [2] (organic solvent or mixture, THF, room temperature), less than 1000 µg/mL; in data set [2] (water, H2O, room temperature), 47000 µg/mL. The half-life – broadly, the time needed for the level to fall by half in the phase considered – at 1 μM in data set [3] is 2.62 h. For the same compound, the microsomal CLint – broadly, a measure of how fast metabolising enzymes remove a compound, apart from limits set by blood flow – at 1 μM in data set [3] is 8.84 µL/min/mg.

`CN[C@H](C)C(=O)c1ccc2c(c1)OCO2` [(R)-Methylone Hydrochloride, (R)-1-(Benzo[d][1,3]dioxol-5-yl)-2-(methylamino)propan-1-one Hydrochloride]: in data set [1] (vs placebo-treated controls), the CAPS-5 assessments entry is “Significant improvements in CAPS-5 assessments”, the “clinician-rated functional impairment score as measured by SDS” value is on record as “a significant improvement in clinician-rated functional impairment score” and the “depression as measured by HAM-D” value is on record as “a significant improvement depression”. For the same compound, the adverse anxiogenic incidents entry in data set [1] (PTSD participants, vs placebo-treated controls) was “without a significant increase in adverse anxiogenic incidents”. In data set [1], the “daytime sleepiness as measured by ESS” value is reported as “a significant improvement in lessening daytime sleepiness” and the “change in CAPS-5 assessment” value was “a significant mean reduction in CAPS-5 assessment”. Moreover, in data set [3], the half-life at 1 μM came to 3.38 h and the intrinsic clearance (microsomal CLint) at 1 μM came out at 6.82 µL/min/mg.

On to `CN[C@@H](C)C(=O)c1ccc2c(c1)OCO2` [(S)-Methylone Hydrochloride, (S)-1-(Benzo[d][1,3]dioxol-5-yl)-2-(methylamino)propan-1-one Hydrochloride], for which, in data set [1] (vs placebo-treated controls), the CAPS-5 assessments entry was “Significant improvements in CAPS-5 assessments”, the “clinician-rated functional impairment score as measured by SDS” value is given as “a significant improvement in clinician-rated functional impairment score” and the “depression as measured by HAM-D” value was “a significant improvement depression”. For the same compound, in data set [1] (PTSD participants), the “total dosage of drug needed for significant mean reduction in CAPS-5, compared to racemic methylone-treated subgroup” value is “lower total dosage of drug”. In data set [1], the “daytime sleepiness as measured by ESS” value is listed as “a significant improvement in lessening daytime sleepiness” and the “change in CAPS-5 assessment” value was “a significant mean reduction in CAPS-5 assessment”. In data set [3], this compound displayed a half-life at 1 μM of 2.28 h and a microsomal CLint at 1 μM of 10.1 µL/min/mg.
